Measurements from patent US12673975B2, “Cyclic peptide, cell scaffold material, cell separating material, and medium” (FUJIFILM Corporation, priority 2019, dated 2026).
Like-named read-outs stand apart in the source and are kept apart here. Starred links: 1 amine or outer side, 2 acyl side, 3 side chain; linkers in the order of their positions; H or OH if unused. Positions of bridges follow the written chain, without caps; N, C: chain ends. Non-standard residues stand in square brackets, D forms with d. Residues, ends and D or L forms follow the SMILES beside them. Pen = CC(C)(S)[C@H](N)C(=O)O; hCys = N[C@@H](CCS)C(=O)O; Dab = NCC[C@H](N)C(=O)O; Dap = NC[C@H](N)C(=O)O; X1 = O=C(C[*:2])[*:1]; X2 = O=C(C[*:1])[*:2]; βAla = NCCC(=O)O

Assays:
[1] = Evaluation of molecule stability (alkali treatment, residual rate by LC/MS); format: physicochemical; details: for Stability (molecule stability, residual rate of the cyclic peptide rank): alkali treatment, residual rate by LC/MS; for Performance evaluation: Stability (residual rate of cyclic peptide after alkali treatment): 500 μM peptide aqueous solution plus equivalent of 1 M sodium hydroxide, 15° C., 3 hours, LC/MS peak area
Outline: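 Stability read as percent of summed LC/MS peak area remaining versus untreated peptide (C18, 45 °C, 10 mM ammonium formate pH 3, ESI positive/negative). Treatment: 500 μM peptide in water plus an equivalent of 1 M NaOH, 15 °C for 3 hours.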

human integrin αvβ5 = human integrin αvβ5 (Homo sapiens, UniProt P06756+P18084); test: Evaluation of integrin binding property (surface plasmon resonance, Biacore 3000, immobilized cyclic peptide)
Outline: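 Human αvβ5 (30-1,000 nM) flowed for 10 min at 25 °C over immobilized cyclic peptide in 20 mM HEPES, 150 mM NaCl, 5 mM MgCl2, pH 7.4, followed by 30 min running buffer and 0.5 M EDTA regeneration. Dissociation constant from peptide minus unimmobilized channel, scored into standard grades.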

[2] = surface plasmon resonance, immobilized cyclic peptide, human integrin αvβ5, read-out: Binding activity (integrin binding property, dissociation constant rank)
[3] = SPR, 25° C., HEPES buffer with 5 mM magnesium chloride, integrin 30-1,000 nM, read-out: Performance evaluation: Binding activity (dissociation constant between the cyclic peptide and human integrin αvβ5)

Sequence of human integrin αvβ5 (P06756 31-1048): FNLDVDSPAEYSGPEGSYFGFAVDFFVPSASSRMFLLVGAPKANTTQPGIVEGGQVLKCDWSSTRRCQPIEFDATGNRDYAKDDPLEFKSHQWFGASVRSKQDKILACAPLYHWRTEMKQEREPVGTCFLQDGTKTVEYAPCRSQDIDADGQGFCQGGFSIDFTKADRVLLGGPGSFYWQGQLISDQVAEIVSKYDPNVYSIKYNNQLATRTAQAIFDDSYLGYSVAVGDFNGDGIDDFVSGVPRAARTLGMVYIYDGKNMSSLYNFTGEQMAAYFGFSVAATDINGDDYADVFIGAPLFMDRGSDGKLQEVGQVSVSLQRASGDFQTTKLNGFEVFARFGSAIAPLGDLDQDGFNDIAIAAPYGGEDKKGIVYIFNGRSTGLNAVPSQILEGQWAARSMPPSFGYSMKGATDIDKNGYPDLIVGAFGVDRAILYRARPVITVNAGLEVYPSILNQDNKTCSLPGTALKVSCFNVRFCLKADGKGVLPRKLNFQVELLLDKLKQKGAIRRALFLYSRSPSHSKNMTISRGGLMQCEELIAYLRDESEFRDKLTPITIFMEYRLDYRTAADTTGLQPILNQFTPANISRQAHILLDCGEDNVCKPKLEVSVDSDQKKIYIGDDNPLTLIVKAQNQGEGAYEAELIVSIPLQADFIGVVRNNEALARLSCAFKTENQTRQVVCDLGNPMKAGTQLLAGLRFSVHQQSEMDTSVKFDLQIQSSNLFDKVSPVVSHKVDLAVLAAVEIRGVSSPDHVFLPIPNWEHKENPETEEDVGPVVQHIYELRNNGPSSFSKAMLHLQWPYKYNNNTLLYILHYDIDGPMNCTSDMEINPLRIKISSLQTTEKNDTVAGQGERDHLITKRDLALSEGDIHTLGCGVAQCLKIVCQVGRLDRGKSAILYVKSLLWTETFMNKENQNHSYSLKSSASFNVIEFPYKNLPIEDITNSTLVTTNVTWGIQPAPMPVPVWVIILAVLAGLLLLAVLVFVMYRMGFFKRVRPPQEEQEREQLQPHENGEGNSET
Sequence of human integrin αvβ5 (P18084 24-799): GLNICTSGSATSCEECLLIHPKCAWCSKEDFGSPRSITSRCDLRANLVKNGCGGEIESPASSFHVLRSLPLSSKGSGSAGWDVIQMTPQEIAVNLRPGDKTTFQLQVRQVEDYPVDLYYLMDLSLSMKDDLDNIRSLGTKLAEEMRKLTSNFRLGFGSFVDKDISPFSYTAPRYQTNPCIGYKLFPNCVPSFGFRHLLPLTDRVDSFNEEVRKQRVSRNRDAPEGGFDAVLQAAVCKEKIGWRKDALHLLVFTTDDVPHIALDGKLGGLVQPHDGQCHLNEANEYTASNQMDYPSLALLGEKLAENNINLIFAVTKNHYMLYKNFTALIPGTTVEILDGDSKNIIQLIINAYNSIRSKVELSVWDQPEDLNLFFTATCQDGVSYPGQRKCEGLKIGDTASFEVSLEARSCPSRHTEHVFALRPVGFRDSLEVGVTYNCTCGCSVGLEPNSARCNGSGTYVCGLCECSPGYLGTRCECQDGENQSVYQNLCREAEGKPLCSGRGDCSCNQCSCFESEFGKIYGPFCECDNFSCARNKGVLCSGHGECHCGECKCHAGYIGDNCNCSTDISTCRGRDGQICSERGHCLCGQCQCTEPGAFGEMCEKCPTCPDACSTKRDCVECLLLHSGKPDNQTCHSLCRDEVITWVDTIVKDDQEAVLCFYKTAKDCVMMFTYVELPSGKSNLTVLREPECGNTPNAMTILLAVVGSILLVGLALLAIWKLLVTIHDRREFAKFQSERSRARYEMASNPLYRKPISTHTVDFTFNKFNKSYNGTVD

Compound | Stability (molecule stability, residual rate of the cyclic peptide rank) [1] | Kd (human integrin αvβ5; [2]) [nM] | Performance evaluation: Stability (residual rate of cyclic peptide after alkali treatment) [1] | Kd (human integrin αvβ5; [3]) [nM] | also measured
CC[C@H](C)[C@@H]1NC(=O)[C@@H](NC(=O)[C@H](C)NC(=O)[C@H](CCCCN)NC(=O)[C@H](CCCCN)NC(=O)[C@@H](N)CCCCN)CCNC(=O)CSC(C)(C)[C@@H](C(=O)N[C@@H](C)C(=O)O)NC(=O)[C@H](C)NC(=O)[C@H](Cc2ccccc2)NC(=O)[C@H](CO)NC(=O)[C@H](CC(=O)O)NC(=O)CNC(=O)[C@H](CCCNC(=N)N)NC(=O)[C@@H]2CCCN2C1=O [Cyclic peptide 137, KKKA(Dab(acetyl))IPRGDSFA-(Pen)-A] (H-KKKA[Dab]IPRGDSFA[Pen]A-OH; linker 5-14 via X1) | A (The residual rate of the cyclic peptide is 70% or more.) | 50 to 100 | – | – | –
CC[C@H](C)[C@@H]1NC(=O)[C@@H](NC(=O)[C@H](CCCCN)NC(=O)[C@H](CCCCN)NC(=O)[C@@H](N)CCCCN)CCSCC(=O)NCC[C@@H](C(=O)NCC(=O)O)NC(=O)[C@H](CCCNC(=N)N)NC(=O)[C@H](Cc2ccccc2)NC(=O)[C@H](CC(N)=O)NC(=O)[C@H](CC(=O)O)NC(=O)CNC(=O)[C@H](CCCNC(=N)N)NC(=O)[C@@H]2CCCN2C1=O [Cyclic peptide 4, KKK-(Hcy)-IPRGDNFR(Dab(acetyl))G] (H-KKK[hCys]IPRGDNFR[Dab]G-OH; linker 4-13 via X2) | – | – | A (The residual rate of the cyclic peptide is 70% or more.) | < 50 | –
CC[C@H](C)[C@@H]1NC(=O)[C@@H](NC(=O)[C@H](C)NC(=O)[C@H](CCCCN)NC(=O)[C@H](CCCCN)NC(=O)[C@@H](N)CCCCN)CCSCC(=O)NCCCC[C@@H](C(=O)N[C@@H](C)C(=O)O)NC(=O)[C@H](C)NC(=O)[C@H](Cc2ccccc2)NC(=O)[C@H](CO)NC(=O)[C@H](CC(=O)O)NC(=O)CNC(=O)[C@H](CCCNC(=N)N)NC(=O)[C@@H]2CCCN2C1=O [Cyclic peptide 123, KKKA-(Hcy)-IPRGDSFA(Lys(acetyl))A] (H-KKKA[hCys]IPRGDSFAKA-OH; linker 5-14 via X2) | A (The residual rate of the cyclic peptide is 70% or more.) | < 50 | – | – | –
C[C@H](NC(=O)[C@@H]1CCNC(=O)CSCC[C@H](NC(=O)[C@H](C)NC(=O)[C@H](CCCCN)NC(=O)[C@H](CCCCN)NC(=O)[C@@H](N)CCCCN)C(=O)N[C@@H]([C@@H](C)O)C(=O)N2CCC[C@H]2C(=O)N[C@@H](CCCNC(=N)N)C(=O)NCC(=O)N[C@@H](CC(=O)O)C(=O)N[C@@H]([C@@H](C)O)C(=O)N[C@@H](Cc2ccccc2)C(=O)N[C@@H](CCCNC(=N)N)C(=O)N1)C(=O)O [Cyclic peptide 75, KKKA-(Hcy)-TPRGDTFR(Dab(acetyl))A] (H-KKKA[hCys]TPRGDTFR[Dab]A-OH; linker 5-14 via X2) | – | – | A (The residual rate of the cyclic peptide is 70% or more.) | < 50 | –
CC[C@H](C)[C@@H]1NC(=O)[C@@H](NC(=O)[C@H](C)NC(=O)[C@H](CCCCN)NC(=O)[C@H](CCCCN)NC(=O)[C@@H](N)CCCCN)CCSCC(=O)NCC[C@@H](C(=O)N[C@@H](CC(=O)O)C(=O)O)NC(=O)[C@H](CCCNC(=N)N)NC(=O)[C@H](Cc2ccc(O)cc2)NC(=O)[C@H](CC(N)=O)NC(=O)[C@H](CC(=O)O)NC(=O)CNC(=O)[C@H](CCCNC(=N)N)NC(=O)[C@@H]2CCCN2C1=O [Cyclic peptide 30, KKKA-(Hcy)-IPRGDNYR(Dab(acetyl))D] (H-KKKA[hCys]IPRGDNYR[Dab]D-OH; linker 5-14 via X2) | – | – | A (The residual rate of the cyclic peptide is 70% or more.) | < 50 | –
C[C@H](NC(=O)[C@@H]1CCNC(=O)CSCC[C@H](NC(=O)[C@H](CCCCN)NC(=O)[C@H](CCCCN)NC(=O)[C@@H](N)CCCCN)C(=O)N[C@@H]([C@@H](C)O)C(=O)N2CCC[C@H]2C(=O)N[C@@H](CCCNC(=N)N)C(=O)NCC(=O)N[C@@H](CC(=O)O)C(=O)N[C@@H]([C@@H](C)O)C(=O)N[C@@H](Cc2ccccc2)C(=O)N[C@@H](C)C(=O)N1)C(=O)O [Cyclic peptide 159, KKK-(Hcy)-TPRGDTFA(Dab(acetyl))A] (H-KKK[hCys]TPRGDTFA[Dab]A-OH; linker 4-13 via X2) | A (The residual rate of the cyclic peptide is 70% or more.) | < 50 | – | – | –
N=C(N)NCCC[C@@H]1NC(=O)[C@H](Cc2ccc(O)cc2)NC(=O)[C@H](CC(N)=O)NC(=O)[C@H](CC(=O)O)NC(=O)CNC(=O)[C@H](CCCNC(=N)N)NC(=O)[C@@H]2CCCN2C(=O)[C@H](CCC(=O)O)NC(=O)[C@@H](NC(=O)CCNC(=O)[C@H](CCCCN)NC(=O)[C@H](CCCCN)NC(=O)[C@@H](N)CCCCN)CCSCC(=O)NCC[C@@H](C(N)=O)NC1=O [Cyclic peptide 51, KKKβA-(Hcy)-EPRGDNYR(Dab(acetyl))] (H-KKK[βAla][hCys]EPRGDNYR[Dab]-NH2; linker 5-14 via X2) | – | – | A (The residual rate of the cyclic peptide is 70% or more.) | 100 to 200 | –
C[C@H](NC(=O)[C@H](CCCCN)NC(=O)[C@H](CCCCN)NC(=O)[C@@H](N)CCCCN)C(=O)N[C@H]1CCSCC(=O)NCC[C@@H](C(=O)N[C@@H](CC(=O)O)C(=O)O)NC(=O)[C@H](CC(=O)O)NC(=O)[C@H](Cc2ccc(O)cc2)NC(=O)[C@H](CC(N)=O)NC(=O)[C@H](CC(=O)O)NC(=O)CNC(=O)[C@H](CCCNC(=N)N)NC(=O)[C@@H]2CCCN2C(=O)[C@H](CCC(=O)O)NC1=O [Cyclic peptide 35, KKKA-(Hcy)-EPRGDNYD(Dab(acetyl))D] (H-KKKA[hCys]EPRGDNYD[Dab]D-OH; linker 5-14 via X2) | – | – | A (The residual rate of the cyclic peptide is 70% or more.) | 100 to 200 | –
CC(C)[C@@H]1NC(=O)[C@@H](NC(=O)[C@H](C)NC(=O)[C@H](CCCCN)NC(=O)[C@H](CCCCN)NC(=O)[C@H](CCCCN)NC(=O)[C@H](CCCCN)NC(=O)[C@H](CCCCN)NC(=O)[C@@H](N)CCCCN)CCSCC(=O)NCC[C@@H](C(=O)N[C@@H](C)C(=O)O)NC(=O)[C@H](C)NC(=O)[C@H](Cc2ccccc2)NC(=O)[C@H]([C@@H](C)O)NC(=O)[C@H](CC(=O)O)NC(=O)CNC(=O)[C@H](CCCNC(=N)N)NC(=O)[C@@H]2CCCN2C1=O [Cyclic peptide 112, KKKKKKA-(Hcy)-VPRGDTFA(Dab(acetyl))A] (H-KKKKKKA[hCys]VPRGDTFA[Dab]A-OH; linker 8-17 via X2) | A (The residual rate of the cyclic peptide is 70% or more.) | < 50 | – | – | –
C[C@H](NC(=O)[C@H](CCCCN)NC(=O)[C@H](CCCCN)NC(=O)[C@@H](N)CCCCN)C(=O)N[C@H]1CNC(=O)CSC[C@@H](C(=O)O)NC(=O)[C@H](CCCNC(=N)N)NC(=O)[C@H](Cc2ccc(O)cc2)NC(=O)[C@H](CC(N)=O)NC(=O)[C@H](CC(=O)O)NC(=O)CNC(=O)[C@H](CCCNC(=N)N)NC(=O)[C@@H]2CCCN2C(=O)[C@H](CCC(=O)O)NC1=O [Cyclic peptide 166, KKKA(Dap(acetyl))EPRGDNYR(C), reference compound] (H-KKKA[Dap]EPRGDNYRC-OH; linker 5-14 via X1) | D (The residual rate of the cyclic peptide is less than 30%.) | < 50 | – | – | molecule stability (in words) ([1]; summary of Table 9 to Table 13): a practically sufficient molecule stability could be obtained
CC(C)[C@@H]1NC(=O)[C@@H](NC(=O)CNC(=O)[C@H](CCCCN)NC(=O)[C@H](CCCCN)NC(=O)[C@@H](N)CCCCN)CCSCC(=O)NCC[C@@H](C(=O)NCC(=O)O)NC(=O)[C@H](C)NC(=O)[C@H](Cc2ccccc2)NC(=O)[C@H]([C@@H](C)O)NC(=O)[C@H](CC(=O)O)NC(=O)CNC(=O)[C@H](CCCNC(=N)N)NC(=O)[C@@H]2CCCN2C1=O [Cyclic peptide 105, KKKG-(Hcy)-VPRGDTFA(Dab(acetyl))G] (H-KKKG[hCys]VPRGDTFA[Dab]G-OH; linker 5-14 via X2) | A (The residual rate of the cyclic peptide is 70% or more.) | – | – | – | Kd (human integrin αvβ5): < 50 nM
CC[C@H](C)[C@@H]1NC(=O)[C@@H](NC(=O)[C@H](CCCCN)NC(=O)[C@H](CCCCN)NC(=O)[C@@H](N)CCCCN)CCSCC(=O)NCC[C@@H](C(=O)O)NC(=O)[C@H](C)NC(=O)[C@H](Cc2ccccc2)NC(=O)[C@H](CO)NC(=O)[C@H](CC(=O)O)NC(=O)CNC(=O)[C@H](CCCNC(=N)N)NC(=O)[C@@H]2CCCN2C1=O [Cyclic peptide 101, KKK-(Hcy)-IPRGDSFA(Dab(acetyl))] (H-KKK[hCys]IPRGDSFA[Dab]-OH; linker 4-13 via X2) | A (The residual rate of the cyclic peptide is 70% or more.) | < 50 | – | – | –
C[C@@H]1NC(=O)[C@H](Cc2ccccc2)NC(=O)[C@H]([C@@H](C)O)NC(=O)[C@H](CC(=O)O)NC(=O)CNC(=O)[C@H](CCCNC(=N)N)NC(=O)[C@@H]2CCCN2C(=O)[C@H](Cc2ccc(O)cc2)NC(=O)[C@@H](NC(=O)[C@H](CCCCN)NC(=O)[C@H](CCCCN)NC(=O)[C@@H](N)CCCCN)CCSCC(=O)NCC[C@@H](C(=O)O)NC1=O [Cyclic peptide 148, KKK-(Hcy)-YPRGDTFA(Dab(acetyl))] (H-KKK[hCys]YPRGDTFA[Dab]-OH; linker 4-13 via X2) | A (The residual rate of the cyclic peptide is 70% or more.) | < 50 | – | – | –
